How the values were obtained:
human recombinant LTA4-H = target: T1, human recombinant LTA4-H (Homo sapiens, UniProt P09960); experiment: LTA4 hydrolase activity, co-incubation of isolated 5-LOX and LTA4-H; format: biochemical; conditions: diflapolin up to 10 µM, AUDA 10 µM, SC57461A 0.3 µM, zileuton 3 µM
T1 construct: gift of Dr. E. Proschak, Goethe University, Frankfurt
T1 sequence (P09960 2-611 limits assumed): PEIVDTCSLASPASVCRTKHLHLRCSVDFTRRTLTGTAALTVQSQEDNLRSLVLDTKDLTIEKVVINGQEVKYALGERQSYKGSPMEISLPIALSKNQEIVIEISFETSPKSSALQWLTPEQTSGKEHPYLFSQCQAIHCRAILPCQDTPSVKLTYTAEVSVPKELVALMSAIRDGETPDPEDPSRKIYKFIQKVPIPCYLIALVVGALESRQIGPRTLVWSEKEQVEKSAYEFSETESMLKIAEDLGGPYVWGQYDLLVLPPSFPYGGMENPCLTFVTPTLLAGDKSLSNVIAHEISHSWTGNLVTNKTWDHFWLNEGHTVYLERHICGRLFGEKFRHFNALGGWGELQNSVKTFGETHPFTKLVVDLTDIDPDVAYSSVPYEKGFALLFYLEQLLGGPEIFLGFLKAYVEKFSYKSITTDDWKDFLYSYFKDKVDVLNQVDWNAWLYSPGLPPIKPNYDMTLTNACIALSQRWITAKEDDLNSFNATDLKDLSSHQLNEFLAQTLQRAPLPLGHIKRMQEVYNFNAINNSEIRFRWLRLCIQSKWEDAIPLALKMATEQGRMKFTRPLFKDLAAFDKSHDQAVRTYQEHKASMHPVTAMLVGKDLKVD
Protocol: In order to determine the activity of LTA4-H, aliquots of human recombinant 5-LOX (0.5 µg) and 10 µg of human recombinant LTA4-H (kindly provided by Dr. E. Proschak, Goethe University, Frankfurt, Germany) were suspended in 1 mL PBS containing 1 mM EDTA and pre-incubated with test compounds or vehicle (0.1% DMSO) for 10 min on ice. The specific LTA4-H inhibitor SC57461A (0.3 µM) was used as reference drug. Subsequently, incubations were stimulated with 20 µM AA and 2 mM CaCl2 for additional 10 min at 37 °C. The reaction was stopped by 1 volume ice-cold methanol, 530 µL acidified PBS and 200 ng of PGB1 as internal standard were added and subjected to solid phase extraction. All LTB4 isomers were analyzed by HPLC as described above.

[1] = tested on: AA release (cPLA2) in neutrophils; experiment: [3H]-labeled arachidonic acid release in neutrophils; format: cell-based, human; conditions: [3H]AA-pre-labelled neutrophils; diflapolin 1 µM, RSC-3388 10 µM
Protocol: Freshly isolated human neutrophils were resuspended in RPMI 1640 medium to a final cell density of 10^7 cells/mL and incubated with 0.5 µCi/mL of [^3H]-labeled arachidonic acid ([^3H]-AA), corresponding to a concentration of 5 nM of the fatty acid, for 2 hrs (37 °C, 5% CO2). Cells were washed twice to remove unincorporated [^3H]-AA and resuspended in PBS containing glucose (0.1%), fatty acid-free BSA (2 mg/mL) and CaCl2 (1 mM). […] The reaction was stopped on ice and cells were centrifuged at 1,200 rpm (10 min, 4 °C). The collected supernatants were combined with 2 mL of liquid scintillation counting solution (Rotiszint eco plus, Carl Roth, Karlsruhe, Germany) and assayed for radioactivity by scintillation counting (Micro Beta Trilux, Perkin Elmer, Waltham, MA).

sEH in HepG2 cells = target: T2, sEH in HepG2 cells (Homo sapiens, UniProt P34913); experiment: 14,15-DiHETrE formation in HepG2 cells (cell-based sEH assay)
T2 construct: sEH is constitutively expressed in the human liver cancer cell line HepG2; endogenous in cells; host or cells: HepG2
T2 sequence (P34913 1-555): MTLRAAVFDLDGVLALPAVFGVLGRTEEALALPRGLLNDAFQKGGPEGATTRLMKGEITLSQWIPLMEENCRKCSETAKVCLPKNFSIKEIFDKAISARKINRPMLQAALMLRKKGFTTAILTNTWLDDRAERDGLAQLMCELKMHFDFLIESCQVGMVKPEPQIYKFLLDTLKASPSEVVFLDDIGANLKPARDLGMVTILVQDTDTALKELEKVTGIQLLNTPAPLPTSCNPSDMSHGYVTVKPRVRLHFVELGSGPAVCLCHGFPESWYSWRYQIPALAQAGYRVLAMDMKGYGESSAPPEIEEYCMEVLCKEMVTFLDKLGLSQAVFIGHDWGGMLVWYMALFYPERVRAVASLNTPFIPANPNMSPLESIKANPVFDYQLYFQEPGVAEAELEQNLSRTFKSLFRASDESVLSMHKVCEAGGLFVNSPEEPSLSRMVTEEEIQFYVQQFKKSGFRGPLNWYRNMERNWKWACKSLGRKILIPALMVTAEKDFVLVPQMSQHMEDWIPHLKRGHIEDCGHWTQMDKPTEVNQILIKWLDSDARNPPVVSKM
Protocol: To assay the activity of sEH in a cell-based model, HepG2 cells were harvested by trypsinization, pelleted (1,200 rpm, 5 min, 4 °C) and resuspended in PGC buffer to a final concentration of 1.5 × 10^6 cells/mL. […] Briefly, samples were acidified with four volumes of MilliQ water pH 3.5 containing PBS-HCl and subjected to Waters Sep-Pak® Vac 6cc columns (Waters, Milford, MA, USA), washed once with MilliQ and hexane, and eluted with methylformiate. The nitrogen-dried samples were dissolved in 50% methanol, and 14,15-DiHETrE formation was measured by UPLC-MS/MS using an Acquity™ UPLC system (Waters, Milford, MA, USA) and a QTRAP 5500 Mass Spectrometer (ABSciex, Darmstadt, Germany) equipped with a Turbo V™ Source and electrospray ionization (ESI). […] Ion spray voltage was set to 4000 V, the heater temperature to 500 °C, the declustering potential to 50–80 eV, the entrance potential to 10 eV, the collision cell exit potential to 10–13 eV, collision energies of 10 eV, the spray gas pressure to 40 psi, medium collision gas and the curtain gas pressure to 35 psi.

recombinant LTA4-H = tested on: recombinant LTA4-H; parameters: method as in PMID 11805219; conditions: read-out: IC50 against recombinant LTA4-H; cited from earlier work
monocytes = experiment: Acute cytotoxicity, MTT assay in monocytes; format: cell-based, human; conditions: 24 or 48 hrs; diflapolin 10 µM, staurosporine 3 µM
Protocol: Acute cytotoxicity of the compounds was determined using freshly isolated monocytes. Cells (0.2 × 10^6) per sample were seeded in 100 µL buffer on 96-well plates and treated with the test compounds and appropriate controls for 24 or 48 hrs (37 °C, 5% CO2). After addition of MTT (5 mg/mL) for 2 h (37 °C, 5% CO2), cells were lysed by SDS treatment (10%, pH 4.5) for 16–20 hrs and formazan formation was determined by measurement of absorbance at 570 nm.

[2] = target: T3, co-localization of 5-LOX with FLAP (Homo sapiens, UniProt P20292); experiment: Immunofluorescence microscopy of 5-LOX subcellular redistribution / co-localization with FLAP; format: cell-based; conditions: human neutrophils or monocytes; diflapolin 1 µM, MK886 0.3 µM, zileuton 3 µM
T3 construct: endogenous in cells; host or cells: freshly isolated human monocytes (immunofluorescence also in neutrophils)
T3 sequence (P20292 1-161): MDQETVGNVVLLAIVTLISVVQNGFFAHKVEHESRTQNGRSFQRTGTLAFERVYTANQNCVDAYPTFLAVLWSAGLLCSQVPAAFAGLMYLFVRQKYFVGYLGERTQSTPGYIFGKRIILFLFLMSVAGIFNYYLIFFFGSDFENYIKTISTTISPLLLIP
Protocol: The incubations were stopped by paraformaldehyde fixation (4%, 20 min, RT) and cells were permeabilized using 100% ice-cold acetone (5 min, 4 °C). Blocking with non-immune goat serum (30 min, RT) was performed prior to overnight incubation (4 °C) with primary monoclonal-mouse-anti-5-LOX antibody (1:100 dilution, a generous gift from Dr. D. Steinhilber, Goethe University Frankfurt, Germany) and polyclonal-rabbit-anti-FLAP antibody (5 µg/mL, Abcam, Cambridge, UK). […] Cells were visualized by a Zeiss Axiovert 200 M microscope, and a Plan Neofluar × 100/1.30 Oil (DIC III) objective (Carl Zeiss, Jena, Germany) and image acquisition was performed using an AxioCam MR camera (Carl Zeiss).

[3] = tested on: 5-LOX activity in monocytes, neutrophils; experiment: cells; conditions: Homo sapiens, read-out: IC50 5-LOX activity in cell-based assays
Protocol: In order to examine 5-LOX product formation in intact human neutrophils and monocytes, freshly isolated cells were resuspended in PBS buffer containing 0.1% glucose and 1 mM CaCl2 (PGC buffer) to a final cell density of 5 × 10^6 or 2 × 10^6, respectively. […] 5-LOX product formation was stopped by addition of one volume of ice-cold methanol, samples were subjected to solid phase extraction after addition of 200 ng PGB1 as internal standard and 5-LOX products were analyzed by RP-HPLC as described above.

5-LOX/FLAP complex = target: T4, 5-LOX/FLAP complex (Homo sapiens, UniProt P20292); experiment: Proximity ligation assay of 5-LOX/FLAP complex assembly in monocytes; format: cell-based; conditions: diflapolin 1 µM, MK886 0.3 µM, zileuton 3 µM
T4 construct: endogenous in cells; host or cells: freshly isolated human monocytes (immunofluorescence also in neutrophils)
T4 sequence (P20292 1-161): T3 sequence (P20292 1-161)
Protocol: In situ protein interaction of 5-LOX and FLAP was analyzed by proximity ligation assay as described before[37] and referring to the manufacturer’s protocol. In brief, freshly isolated monocytes were treated as described for IF above. Overnight incubations with primary antibodies were then treated for 1 h (37 °C) with oligonucleotide-labeled specific secondary antibodies (PLA probes anti-mouse MINUS and anti-rabbit PLUS). Formation of circled DNA sequences was induced by addition of ligase and oligonucleotide mixture (30 min at 37 °C). Rolling-circle-amplification of newly generated DNA template was performed (90 min, 37 °C) including hybridization of fluorescently-labeled oligonucleotides within the formed DNA strands, resulting in visualization of protein-protein interactions recognized as magenta-stained dots. Nuclear DNA staining with DAPI and image acquisition was performed as described above. Overview images were obtained using a Plan Neofluar 40/1.30 Oil (DIC III) objective (Carl Zeiss).

O=C(O)CCCCCCCCCCCNC(=O)NC12CC3CC(CC(C3)C1)C2 [AUDA]
effect on LTA4-H activity (LTB4 formation) (human recombinant LTA4-H): showed the same pattern as diflapolin

CC(C)CN(Cc1ccccc1-c1ccccc1)[C@@H]1C[C@@H](CNC(=O)/C=C/c2ccc(/C=C3\SC(=O)NC3=O)cc2)N(C(=O)c2ccccc2C(=O)c2ccc(F)cc2F)C1 [RSC-3388]
release of AA upon A23187-stimulation [1]: suppressed AA liberation

CN(CCCOc1ccc(Cc2ccccc2)cc1)CCC(=O)O.Cl [SC57461A, 3-[methyl[3-[4-(phenylmethyl)phenoxy]propyl]amino]propanoic acid HCl]
effect on LTA4-H activity (LTB4 formation) (human recombinant LTA4-H): blocked LTB4 biosynthesis | effect on sEH in the cell-based sEH assay (sEH in HepG2 cells): no impact | IC50 (recombinant LTA4-H): 100 nM

CN[C@@H]1C[C@H]2O[C@@](C)([C@@H]1OC)n1c3ccccc3c3c4c(c5c6ccccc6n2c5c31)C(=O)NC4 [staurosporine]
viability of monocytes, MTT assay (monocytes): strongly impaired cell viability

CC(c1cc2ccccc2s1)N(O)C(N)=O (stereo not shown) [zileuton]
effect on LTA4-H activity (LTB4 formation) (human recombinant LTA4-H): reduced the formation of all LTB4 isomers | co-localization of 5-LOX with FLAP [2]: neither diflapolin nor the FLAP inhibitor MK886 or the 5-LOX inhibitor zileuton prevented co-localization | IC50 [3]: 1500 nM | 5-LOX/FLAP complex assembly (PLA) (5-LOX/FLAP complex): failed

Source: paper PMC5571211 (Scientific Reports, 2017)
